Ends that are not written are not given here.
Legend:
[1] = 2 h postprandial blood glucose excursions in patients with type 2 diabetes; format: in vivo, human; conditions: Day 1; oral doses ≧2.5 mg
[2] = test system: rats fed a high-fat diet (diet induced obesity); test: Chronic treatment in non-diabetic model of diet induced obesity: body weight, total body fat, liver fat, intramyocellular fat (MRS); format: in vivo; conditions: 6 weeks, linagliptin 10 mg/kg, sibutramine 5 mg/kg; for Body weight % baseli. / Intra-myocellular fat % baseli. / Liver fat % baseli. / Total body fat % baseli.: versus baseline; for Body weight % contr. / Intra-myocellular fat % contr. / Liver fat % contr. / Total body fat % contr.: versus control; for Intra-myocellular fat % baseli. / Liver fat % baseli. / Total body fat % baseli. / Intra-myocellular fat % contr. / Liver fat % contr. / Total body fat % contr.: MRS
Description: Magnetic resonance spectroscopy (MRS) analysis of total body fat, muscle fat, and liver fat is performed before treatment and at the end of the study.

[3] = Safety and tolerability in people with type 2 diabetes
[4] = test system: DIO male Sprague-Dawley rats; test: Chronic s.c. dosing, body weight and food intake in diet-induced obese (DIO) rats; format: in vivo; conditions: DIO rat, s.c. twice daily
Description: (§1) However, it is not known whether DPP-IV inhibition in conjunction with glucagon-like peptide (GLP)-1 administration would influence body weight.
(§2) Materials and methods: Normal-weight and DIO male Sprague-Dawley rats were used for acute and chronic dosing experiments, respectively. All rats were stratified to treatment groups according to individual body weight and whole-body fat mass. Linagliptin+GLP-1 combination treatment was evaluated in both acute and chronic treatment settings and compared with monotherapy and vehicle controls. […] For comparison, DIO rats were exposed to 28 days of liraglutide monotherapy. All drugs were administered twice daily subcutaneously (s.c.). […] In comparison, chronic liraglutide (0.2 mg/kg) treatment evoked a long-lasting hypophagic response with a weight loss of −10.8±0.5% and 12.2±0.6% at day 14 and 28, respectively.

clinical = conditions: human, urine, po
[5] = test system: non-obese-diabetic (NOD) mice; test: Onset of diabetes and beta-cell mass in non-obese-diabetic (NOD) mice; format: in vivo; conditions: female NOD mice
From the text: Though reduced pancreatic T-cell migration and altered cytokine production is considered important players for the onset of insulinitis the exact mechanism and effects on the pancreatic cell pool is still incompletely understood.
Bi-weekly plasma samples are obtained to determine onset of diabetes (BG>11 mmol/l).

[6] = test system: normal-weight male Sprague-Dawley rats; test: Acute s.c. dosing, nocturnal food intake in normal-weight rats; format: in vivo; conditions: linagliptin 0.1-0.5 mg/kg, GLP-1 0.2-0.4 mg/kg
Description: as §1, §2

RIP-B7.1 tg mice = test: Diabetes development in RIP-B7.1 transgenic mice after proinsulin/insulin A-chain plasmid vaccination; format: in vivo
From the text: Dipeptidyl peptidase (DPP)-4 inhibitors block incretin degradation by DPP-4. […] As in humans, diabetes development in this model critically depends on activated CD8 T cells. Diabetes develops in RIP-B7.1 tg mice after a single intramuscular (i.m.) vaccination (vac) of proinsulin (PI) plasmid DNA.
Vac A: Diabetes is induced using a PI-encoding plasmid resulting in an aggressive insulitis. Vac B: vac with insulin A-chain encoding plasmid results in a delayed diabetes development compared to vac A. With vac A (n=20 tg mice), diabetes incidence is 80% 5 weeks after vac, whereas vac B (n=34) results in 79% incidence after 12 wks in placebotreated mice.

[7] = Pharmacokinetics of BI 1356 in patients with type 2 diabetes, multiple oral doses once daily for 12 days
[8] = 2.5 mg oral once daily, steady state (Day 12), gMean (gCV)
[9] = 10 mg oral once daily, steady state (Day 12), gMean (gCV)

CC#CCn1c(N2CCC[C@@H](N)C2)nc2c1c(=O)n(Cc1nc(C)c3ccccc3n1)c(=O)n2C [linagliptin]
decrease in 2 h postprandial blood glucose excursions [1]: ≥ 80%
Body weight % baseli. [2]: +12%
Body weight % contr. [2]: −3%
Body weight % contr. ([2]; listed as Linagliptin): −3%
Intra-myocellular fat % baseli. [2]: −24%
Liver fat % baseli. [2]: −30%
Total body fat % baseli. [2]: +5%
Intra-myocellular fat % baseli. ([2]; listed as Linagliptin): −24%
Intra-myocellular fat % contr. [2]: −36%
Liver fat % contr. [2]: −39%
Total body fat % contr. [2]: −5%
Liver fat % contr. ([2]; listed as Linagliptin): −39%
Total body fat % contr. ([2]; listed as Linagliptin): −5%
safety and tolerability [3]: placebo-like safety and tolerability
effect of 14 days of monotherapy [4]: no effect
CL renal (clinical): 14 to 70 mL/min
CL renal (clinical; 5 mg): ~70 mL/min
incidence of diabetes (BG>11 mmol/l) at the end of the study period ([5]; 60 days, diet with 0.083 g linagliptin/kg chow (3-10 mg/kg p.o.), control 18 of 30): 9 out of 30
beta cell mass (insulin immunoreactivity, stereology) ([5]; 60 days, linagliptin in diet, vehicle 0.18±0.03): 0.48±0.09 mg
total islet mass ([5]; 60 days, linagliptin in diet, vehicle 0.40±0.04): 0.70 ± 0.09 mg
peri-islet infiltrating lymphocytes ([5]; 60 days, linagliptin in diet, vehicle 1.06±0.15): 0.79 ± 0.12 mg
active plasma GLP-1 at termination ([5]; versus control): higher
effect on nocturnal food intake [6]: no effect
Serum levels of the regulatory cytokine IL-10 (RIP-B7.1 tg mice; linagliptin 3 mg/kg/day oral): significantly upregulated
islet insulin content after diabetes onset (RIP-B7.1 tg mice; linagliptin 3 mg/kg/day oral): partially preserved
number of islet antigen-specific CD8 T cells expressing IFN-γ (FACS and ELISPOT) (RIP-B7.1 tg mice; linagliptin 3 mg/kg/day oral versus placebo): equal number
diabetes incidence (RIP-B7.1 tg mice; vac A (PI-encoding plasmid), after wk 8 of follow-up, linagliptin 3 mg/kg/day oral, placebo 80% at 5 wks): 80%
diabetes incidence (RIP-B7.1 tg mice; vac B (insulin A-chain plasmid), during 14 wks follow up, linagliptin 3 mg/kg/day oral, control 92% wk 14): ≤ 62%
feT,ss ([7]; 1 mg oral once daily, steady state (Day 12), gMean (gCV)): 3.34 (38.3) %
fe0-24 ([7]; 2.5 mg oral once daily for 12 days, gMean (gCV)): 0.139 (51.2) %
AUCT,ss [7, 8]: 117 (16.3) nmol · h/L
feT,ss [7, 8]: 3.06 (45.1) %
fe0-24 ([7]; 5 mg oral once daily for 12 days, gMean (gCV)): 0.453 (125) %
feT,ss ([7]; 5 mg oral once daily, steady state (Day 12), gMean (gCV)): 6.27 (42.2) %
fe0-24 ([7]; 10 mg oral once daily for 12 days, gMean (gCV)): 0.919 (115) %
T1/2,ss [7, 9]: 130 (11.7) h
feT,ss [7, 9]: 3.22 (34.2) %
form and path of excretion ([7]; human, in vivo): primarily excreted unchanged via the bile
mean accumulation ratio RA,AUC ([7]; oral doses above 1 mg once daily): ≤ 1.4
fraction excreted via the kidney ([7]; therapeutic oral dose levels): < 7 % of the administered oral dose
main route of excretion ([7]; therapeutic oral dose levels): mainly excreted via the liver

CC(C)CC(N(C)C)C1(c2ccc(Cl)cc2)CCC1 (stereo not drawn) [Sibutramine, reference compound]
Body weight % baseli. [2]: +1%
Body weight % contr. [2]: −12%
Intra-myocellular fat % baseli. [2]: −34%
Liver fat % baseli. [2]: −29%
Total body fat % baseli. [2]: −0.4%
Intra-myocellular fat % baseli. ([2]; listed as sibutramine): −34%
Intra-myocellular fat % contr. [2]: −55%
Liver fat % contr. [2]: −30%
Total body fat % contr. [2]: −12%
Liver fat % contr. ([2]; listed as sibutramine): −30%
Total body fat % contr. ([2]; listed as sibutramine): −12%

GLP-1: native glucagon-like peptide (GLP)-1 (7-36) (HAEGTFTSDVSSYLEGQAAKEFIAWLVKGR; ends and bridges not checked; UniProt P01275 98-127, looked up)
effect of 14 days of monotherapy [4]: no effect
effect on nocturnal food intake [6]: rapid-onset suppression of food intake

— patent US20130172244A1, “SUBCUTANEOUS THERAPEUTIC USE OF DPP-4 INHIBITOR” (priority 2011, published 2013)
